Assay results published in patent publication US20060194819A1, “Activation specific inhibitors of nf-kb and method of treating inflammatory processes in cardio-vascular diseases” (PROCORDE GMBH, priority 2003, published 2006).

Assays:
[1] = target: T1, IKK-complex (Homo sapiens, UniProt O14920+O15111+Q9Y6K9); experiment: Cellular IKK kinase assay: HeLa cells treated with compound, TNF alpha stimulation, IKK-complex immunoprecipitated with anti-NEMO-antibody, I kappaB peptide phosphorylation by alpha screen; type: cell-based; conditions: HeLa cells, compound 1 h, TNF alpha 20 ng/ml, alpha screen; read-out: IC50 for inhibition of IKK-activity (I kappaB peptide phosphorylation)
T1 construct: IKK-complex was immunoprecipitated with anti-NEMO-antibody; endogenous in cells; host or cells: HeLa
Protocol: Kinase Assay Protocol: HeLa cells were maintained in Dulbecco's modified Eagle's medium (Invitrogen) supplemented with 10% fetal bovine serum, 2 mM L-glutamine, penicillin (50 units/ml) and streptomycin (50 μg/ml). 24 h before treatment with different compounds HeLa cells were plated at a density of 5×10^6 per well in 100-mm cell culture dishes to 90% confluences.
The cells were incubated with different drugs at the concentration indicated for 1 h, washed twice with PBS and stimulated with 20 ng/ml TNF alpha (Roche). After 7 min the cells were washed twice with ice cold PBS followed by scraping and transferring into a 1.5 ml microcentrifuge tube. After centrifugation by 2000 rpm for 2 min by 4° C. the PBS supernatant was removed and 200 μl Lyse-buffer (10 mM Hepes, pH 7.9, 0.1% NP40, 10 mM, 300 mM Sucrose, 10 mM KCl, 15 mM MgCl2, 1 mM DTT, 0.5 mM PMSF and antipain, aprotinin, leupeptin each 0.75 μg/ml (Sigma) was added to the pellet. The resuspended pellet was incubated on ice for 5 min and centrifuged at 13000 g for 30 s. The supernatant, cytosolic extract, was added to 200 μl TNT-buffer (200 mM NaCl, 20 mM Tris/HCl pH 7.5, 1% Triton X-100). Unspecific binding was blocked by incubation with 3 μg of normal rabbit IgG (Sigma) and 6 mg resuspended and prewashed Protein A Sepharose CI-4B (Pharmacia Biotech) for 30 min by 4° C. followed by immunoprecipitation for 1.5 h at 4° C. with 2 μg of anti-NEMO-antibody (Santa Cruz Biotechnology) and 6 mg resuspented and prewashed Protein A Sepharose CI-4B (Parmacia Biotech). […] 6.6 μl of detection-buffer (20 mM Hepes pH 7.5, 100 mM NaCl, 1% Tween, 0.1 mM BSA, 50 μg/ml Protein A-Acceptor beads, 250 μg/ml Streptavidin-Donor beads (both Perkin-Elmer), 4 nM anti-phospho-IKB antibody (Santa Cruz Biotechnology) was dispensed to each well. After incubation for 1.5 h the plate was measured by alpha screen reader (Perkin Elmer). […]

[2] = Solubility in PBS; type: physicochemical

T1 sequence (O14920 whole entry): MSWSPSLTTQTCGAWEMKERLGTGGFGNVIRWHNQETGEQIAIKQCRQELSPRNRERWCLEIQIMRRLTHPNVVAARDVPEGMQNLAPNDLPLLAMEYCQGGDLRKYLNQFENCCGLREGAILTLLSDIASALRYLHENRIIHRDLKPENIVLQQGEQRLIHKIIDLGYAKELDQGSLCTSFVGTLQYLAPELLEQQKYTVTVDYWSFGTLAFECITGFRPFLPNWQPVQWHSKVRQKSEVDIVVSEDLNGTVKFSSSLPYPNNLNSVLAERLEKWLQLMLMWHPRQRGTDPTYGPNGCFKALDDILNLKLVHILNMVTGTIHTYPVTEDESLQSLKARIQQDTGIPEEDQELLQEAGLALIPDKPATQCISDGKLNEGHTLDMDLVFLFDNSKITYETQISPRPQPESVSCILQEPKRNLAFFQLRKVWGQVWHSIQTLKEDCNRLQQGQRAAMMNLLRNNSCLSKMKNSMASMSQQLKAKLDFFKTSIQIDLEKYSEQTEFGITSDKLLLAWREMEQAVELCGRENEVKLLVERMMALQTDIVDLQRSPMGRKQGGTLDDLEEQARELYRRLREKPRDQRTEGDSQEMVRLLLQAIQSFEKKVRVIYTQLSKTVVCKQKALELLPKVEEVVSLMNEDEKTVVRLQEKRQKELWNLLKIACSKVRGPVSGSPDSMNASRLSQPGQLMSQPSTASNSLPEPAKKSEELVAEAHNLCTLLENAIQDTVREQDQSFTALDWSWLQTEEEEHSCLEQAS
T1 sequence (O15111 whole entry): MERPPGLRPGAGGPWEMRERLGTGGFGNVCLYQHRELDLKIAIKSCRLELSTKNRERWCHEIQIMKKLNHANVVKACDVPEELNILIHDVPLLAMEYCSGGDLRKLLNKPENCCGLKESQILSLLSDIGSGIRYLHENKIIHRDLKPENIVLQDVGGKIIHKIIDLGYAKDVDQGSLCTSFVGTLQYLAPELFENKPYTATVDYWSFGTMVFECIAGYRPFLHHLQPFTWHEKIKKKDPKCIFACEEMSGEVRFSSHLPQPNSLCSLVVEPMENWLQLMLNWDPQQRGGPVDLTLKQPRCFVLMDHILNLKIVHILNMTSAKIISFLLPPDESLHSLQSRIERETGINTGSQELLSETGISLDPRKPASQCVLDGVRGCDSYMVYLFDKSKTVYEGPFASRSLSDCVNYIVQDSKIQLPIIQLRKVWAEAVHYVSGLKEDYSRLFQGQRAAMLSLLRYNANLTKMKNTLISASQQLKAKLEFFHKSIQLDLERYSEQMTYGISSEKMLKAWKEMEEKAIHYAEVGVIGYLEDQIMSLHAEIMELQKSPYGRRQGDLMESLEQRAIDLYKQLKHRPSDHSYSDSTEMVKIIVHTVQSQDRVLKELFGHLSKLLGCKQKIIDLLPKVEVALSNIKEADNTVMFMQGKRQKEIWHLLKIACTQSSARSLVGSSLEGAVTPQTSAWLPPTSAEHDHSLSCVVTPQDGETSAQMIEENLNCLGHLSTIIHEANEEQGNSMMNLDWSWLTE
T1 sequence (Q9Y6K9 whole entry): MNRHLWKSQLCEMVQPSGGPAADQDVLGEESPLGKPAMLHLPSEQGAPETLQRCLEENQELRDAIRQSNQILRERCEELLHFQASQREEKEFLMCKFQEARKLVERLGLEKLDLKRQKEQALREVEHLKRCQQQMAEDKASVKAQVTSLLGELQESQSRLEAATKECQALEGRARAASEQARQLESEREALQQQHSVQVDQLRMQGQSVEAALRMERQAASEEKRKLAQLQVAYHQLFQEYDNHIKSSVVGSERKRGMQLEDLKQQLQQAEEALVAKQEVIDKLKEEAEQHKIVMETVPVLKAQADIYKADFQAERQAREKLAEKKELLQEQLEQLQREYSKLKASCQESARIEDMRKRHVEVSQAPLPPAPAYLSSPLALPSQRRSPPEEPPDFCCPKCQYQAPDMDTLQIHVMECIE

SMILES: CCC(=O)C1=C(C)N=c2s/c(=C/c3cc(C)c(OCc4ccccc4Cl)c(I)c3)c(=O)n2C1c1ccc2c(c1)OCO2 (centres unmarked) [Compound 41]
- IC50 [1]: 10 to 100 µM
- solubility in PBS [2]: only partly soluble
